The record followed here is patent US7202261B2, “Calcilytic compounds” (NPS Pharmaceuticals, Inc., priority 1996, dated 2007).

Structures can show the parent of a compound that is named as a salt.

The first test has as its target T1, human calcium receptor (Homo sapiens, UniProt P41180).
T1 construct: expressed in transfected cells
T1 sequence (P41180 20-1078): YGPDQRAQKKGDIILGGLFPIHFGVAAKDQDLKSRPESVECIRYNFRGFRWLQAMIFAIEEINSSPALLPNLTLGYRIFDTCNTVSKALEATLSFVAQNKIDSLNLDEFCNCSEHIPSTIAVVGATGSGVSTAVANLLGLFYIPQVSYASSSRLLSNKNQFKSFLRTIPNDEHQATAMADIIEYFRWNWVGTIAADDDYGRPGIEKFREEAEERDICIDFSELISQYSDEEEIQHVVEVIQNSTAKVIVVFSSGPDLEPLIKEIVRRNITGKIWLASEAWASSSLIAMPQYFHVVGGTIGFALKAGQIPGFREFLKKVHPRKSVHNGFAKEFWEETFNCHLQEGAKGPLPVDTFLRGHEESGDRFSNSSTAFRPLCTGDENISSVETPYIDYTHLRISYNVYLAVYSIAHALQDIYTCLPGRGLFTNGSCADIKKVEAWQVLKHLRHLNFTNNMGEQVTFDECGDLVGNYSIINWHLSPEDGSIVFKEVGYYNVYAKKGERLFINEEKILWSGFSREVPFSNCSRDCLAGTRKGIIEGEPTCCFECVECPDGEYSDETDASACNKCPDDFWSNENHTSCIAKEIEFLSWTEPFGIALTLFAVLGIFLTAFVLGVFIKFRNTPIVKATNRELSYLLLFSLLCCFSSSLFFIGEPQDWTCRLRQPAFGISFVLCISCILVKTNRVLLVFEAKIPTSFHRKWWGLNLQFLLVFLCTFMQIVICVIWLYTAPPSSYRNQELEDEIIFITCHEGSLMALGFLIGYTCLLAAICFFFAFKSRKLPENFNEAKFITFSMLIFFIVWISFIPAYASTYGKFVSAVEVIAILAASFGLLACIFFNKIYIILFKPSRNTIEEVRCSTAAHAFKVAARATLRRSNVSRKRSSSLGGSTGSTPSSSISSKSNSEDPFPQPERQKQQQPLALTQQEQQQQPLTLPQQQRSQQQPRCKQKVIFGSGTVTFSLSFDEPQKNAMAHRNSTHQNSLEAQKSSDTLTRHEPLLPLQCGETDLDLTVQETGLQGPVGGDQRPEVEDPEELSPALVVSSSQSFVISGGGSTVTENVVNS
The test can be described thus: Calcium Receptor Inhibitor Assay.
Conditions: not given
The test is classed as cell-based. The method, then: This example illustrates the use of the Calcium Receptor Inhibitor Assay. […] Res. 10 Suppl. […] Intracellular Ca^2+ was measured using fluo-3, a fluorescent calcium indicator.
The procedure was as follows:
1. Cells were maintained in T-150 flasks in selection media (DMEM supplemented with 10% fetal bovine serum and 200 μg/mL hygromycin B), under 5% CO2:95% air at 37° C. and were grown up to 90% confluency.
2. The medium was decanted and the cell monolayer was washed twice with phosphate-buffered saline (PBS) kept at 37° C. After the second wash, 6 mL of 0.02% EDTA in PBS was added and incubated for 4 minutes at 37° C. Following the incubation, cells were dispersed by gentle agitation.
3. Cells from 2 or 3 flasks were pooled and pelleted (100×g). The cellular pellet was resuspended in […] of SPF-PCB+ and pelleted again by centrifugation. This washing was done twice.
SPF-PCB was made up and stored at 4° C. On the day of use, SPF-PCB was supplemented with 1 mg/mL of D-glucose and 1 mM CaCl2 and then split into two fractions. To one fraction, bovine serum albumin (BSA; fraction V, ICN) was added at 5 mg/mL (SPF-PCB+). This buffer was used for washing, loading and maintaining the cells. The BSA-free fraction was used for diluting the cells in the cuvette for measurements of fluorescence.
5. Following the incubation period, the cells were pelleted by centrifugation. The resulting pellet was washed with SPF-PCB+. After this washing, cells were resuspended in SPF-PCB+ at a density of 1–2×10^6 cells/mL.
6. For recording fluorescent signals, 300 μL of cell suspension were diluted in 1.2 mL of SPF buffer containing 1 mM CaCl2 and 1 mg/mL of D-glucose. Measurements of fluorescence were performed at 37° C. with constant stirring using a spectrofluorimeter. […] To calibrate fluorescence signals, digitonin (5 mg/mL in ethanol) was added to obtain Fmax, and the apparent Fmin was determined by adding Tris-EGTA (2.5 M Tris-Base, 0.3 M EGTA).
7. To determine the potential calcilytic activity of test compounds, cells were incubated with test compound (or vehicle as a control) for 90 seconds before increasing the concentration of extracellular Ca^2+ from 1 to 2 mM. Calcilytic compounds were detected by their ability to block, in a concentration-dependent manner, increases in the concentration of intracellular Ca^2+ elicited by extracellular Ca^2+.
Turning to `COc1ccc(CC(C)(C)NCC(O)CCc2cccc(Cl)c2Cl)cc1` (racemic) [Compound 163], the IC50 (commonly the point on the concentration scale where inhibition reaches its midpoint) was less than 1 µM.
Still for that read-out and setting: the result for `COc1ccc(CC(C)(C)NCC(O)CCCC[N+](=O)[O-])cc1` (racemic) [Compound 164, (R/S)-1-nitro-5-hydroxy-6-[1,1-dimethyl-2-(4-methoxyphenyl)]hexane] reads less than 50 µM; that for `COc1ccc(CC(C)(C)NCCCc2ccccc2)cc1` [Compound 22, N-(3-phenylpropyl)-1,1-dimethyl-2(4-methoxyphenyl)ethylamine], more than 50 µM; that for `COc1ccc(CC(C)(C)NCCCCc2ccccc2)cc1` [Compound 24, N-(4-phenylbutyl)-1,1-dimethyl-2-(4-methoxyphenyl)ethylamine], more than 50 µM.
On to `COc1ccc(CC(C)(C)NCC(O)COC(C)(C)C)cc1` (centres unmarked) [Compound 25, N-(2-Hydroxy-3-t-butoxypropyl)-1,1-dimethyl-2-(4-methoxyphenyl)ethylamine], for which the IC50 was less than 50 µM.
On to `CCCCOCC(O)CNC(C)(C)Cc1ccc(OC)cc1` (centres unmarked) [Compound 26, N-(2-Hydroxy-3-butoxypropyl)-1,1-dimethyl-2-(4-methoxyphenyl)ethylamine], for which the IC50 was less than 10 µM.
As for `COc1ccc(CC(C)(C)NCC(O)COC(C)C)cc1` (centres unmarked) [Compound 27, N-(2-Hydroxy-3-isoproproxypropyl)-1,1-dimethyl-2-(4-methoxyphenyl)ethylamine], the IC50 is less than 10 µM.
Take `CCCCC(CC)COCC(O)CNC(C)(C)Cc1ccc(OC)cc1` (centres unmarked) [Compound 28, N-[2-Hydroxy-3-(2-ethyl)hexanoxypropyl]-1,1-dimethyl-2-(4-methoxyphenyl)ethylamine]: the IC50 was less than 1 µM.
`C=CCOCC(O)CNC(C)(C)Cc1ccc(OC)cc1` (centres unmarked) [Compound 29, N-(2-Hydroxy-3-allyloxypropyl)-1,1-dimethyl-2-(4-methoxyphenyl)ethylamine]: the IC50 was less than 50 µM.
Consider `COc1ccc(CC(C)(C)NCc2ccccc2)cc1` [Compound 34, N-(Benzyl)-1,1-dimethyl-2-(4-methoxyphenyl)ethylamine], for which the IC50 is more than 50 µM.
Still for that read-out and setting: the result for `COc1ccc(CC(C)(C)NCC(O)Cc2ccccc2)cc1` (centres unmarked) [Compound 37, N-(2-Hydroxy-3-phenylpropyl)-1,1-dimethyl-2-(4-methoxyphenyl)ethylamine Hydrochloride] reads less than 10 µM.

The same test, now with this note: HEK 293 4.0–7 cells stably expressing the human calcium receptor; fluo-3; read-out: IC50 for blocking increases of intracellular Ca2+ elicited by extracellular Ca2+.
Take `COc1ccc(CC(C)(C)NC[C@@H](O)COc2ccc(C(C)(C)C)cc2)cc1` (racemic) [Compound 20, (R) and (S)—N-[2-Hydroxy-3-(4-t-butylphenoxy)propyl]-1,1-dimethyl-2-(4-methoxyphenyl)ethylamine Hydrochloride]: the IC50 was less than 1 µM.
In the case of `COc1ccc(CC(C)(C)NCC(O)CCc2cccc3ccccc23)cc1` (racemic) [Compound 162, (R/S)-1-[[2,2-dimethyl-(4′methoxy)phenethyl]]amino-2-hydroxy-4(1′-naphthyl)-butane], the IC50 is less than 10 µM.
The same measure, in the same setting: the result for `COc1ccc(CC(C)(C)NC[C@@H](O)COc2cccc3ccccc23)cc1` (single isomer, unassigned) [Compound 105, Hydrochloride] reads less than 1 µM; that for `COc1ccc(CC(C)(C)NC[C@H](O)COc2cccc3ccccc23)cc1` (single isomer, unassigned) [Compound 106, Hydrochloride], less than 1 µM.
Regarding `COc1ccc(CC(C)(C)NCC(O)COc2cccc3[nH]c(O)nc23)cc1` (centres unmarked) [Compound 1], the IC50 is less than 50 µM.
For the molecule `CC(C)(Cc1ccc(F)cc1)NCC(O)COc1cccc2ccccc12` (centres unmarked) [Compound 2, N-[2-Hydroxy-3-(1-naphthoxy)propyl]-1,1-dimethyl-2-(4-fluorophenyl)ethylamine Hydrochloride], the IC50 is less than 10 µM.
The same measure, in the same setting: the value for `COc1ccc(CC(C)(C)NCC(O)COc2ccccc2)cc1` (centres unmarked) [Compound 3, N-(2-Hydroxy-3-phenoxypropyl)-1,1-dimethyl-2-(4-methoxyphenyl)ethylamine Hydrochloride] was less than 10 µM; that for `COc1ccc(CC(C)(C)NCC(O)COc2ccc(Cl)cc2)cc1` (centres unmarked) [Compound 5, N-[2-Hydroxy-3-(4-chlorophenoxy)propyl]-1,1-dimethyl-2-(4-methoxyphenylethylamine Hydrochloride] was less than 1 µM; that for `COc1ccc(CC(C)(C)NCC(O)COc2ccc(C(C)(C)C)cc2)cc1` (centres unmarked) [Compound 6, N-[2-Hydroxy-3-(4-t-butylphenoxy)propyl]-1,1-dimethyl-2-(4-methoxyphenyl)ethylamine Hydrochloride] was less than 1 µM.
Take `COc1ccc(CC(C)(C)NCC(O)COc2ccc(OC)cc2)cc1` (centres unmarked) [Compound 7, N-[2-Hydroxy-3-(4-methoxyphenoxy)propyl]-1,1-dimethyl-2-(4-methoxyphenyl)ethylamine Hydrochloride]: the IC50 was less than 10 µM.
For the molecule `COc1ccc(CC(C)(C)NCC(O)COc2ccccc2C)cc1` (centres unmarked) [Compound 8, N-[2-Hydroxy-3-(2-methylphenoxy)propyl]-1,1-dimethyl-2-(4-methoxyphenyl)ethylamine Hydrochloride], the IC50 is less than 10 µM.
For `COc1ccc(CC(C)(C)NCC(O)COc2cccc3[nH]c(C(N)=O)cc23)cc1` (centres unmarked) [Compound 9, N-[2-Hydroxy-3-(4-(2-carboxamido)indoloxy)propyl]-1,1-dimethyl-2-(4-methoxyphenyl)ethylamine Hydrochloride], the IC50 was less than 50 µM.
As for `COc1ccc(CC(C)(C)NCCCOc2ccccc2)cc1` [Compound 17, N-(3-Phenoxypropyl)-1,1-dimethyl-2-(4-methoxyphenyl)ethylamine Hydrochloride], the IC50 is less than 50 µM.
With `COc1ccc(CC(C)(C)NCC(O)COc2cccc3ccccc23)cc1` (centres unmarked) [Compound 19, N-[2-Hydroxy-3-(1-naphthoxy)propyl]-1,1-dimethyl-2-(4-methoxyphenyl)ethylamine Hydrochloride], the IC50 was less than 1 µM.
Consider `COc1ccc(CC(C)(C)NCC(O)COc2ccc3ccccc3c2)cc1` (centres unmarked) [Compound 35, N-[2-Hydroxy-3-(2-naphthoxy)propyl]-1,1-dimethyl-2-(4-methoxyphenyl)ethylamine Hydrochloride], for which the IC50 is less than 10 µM.
Consider `COc1ccc(CC(C)(C)NCCCCOc2ccccc2)cc1` [Compound 36, N-(4-phenoxybutyl)-1,1-dimethyl-2-(4-methoxyphenyl)ethylamine], for which the IC50 is more than 50 µM.
As for `COc1ccc(CC(C)(C)NCC(O)COc2cccc(F)c2)cc1` (centres unmarked) [Compound 39, N-[2-Hydroxy-3-(3-fluorophenoxy)propyl]-1,1-dimethyl-2-(4-methoxyphenyl)ethylamine Hydrochloride], the IC50 was less than 10 µM.
`COc1ccc(CC(C)(C)NCC(O)COc2ccccc2Cl)cc1` (centres unmarked) [Compound 40, N-[2-Hydroxy-3-(2-chlorophenoxy)propyl]-1,1-dimethyl-2-(4-methoxyphenyl)ethylamine Hydrochloride]: the IC50 is less than 1 µM.
